Results on six compounds are retold here after paper PMC11480511 (Scientific Reports, 2024).

≈ marks a conversion by molar mass, not a printed value. Like-named read-outs stand apart in the source and are kept apart here.

The inhibition is how much of the control response was suppressed.

One assay relates to EKVX. Briefly: NCI single-dose growth inhibition screen. As to conditions: Homo sapiens; Non-Small Cell Lung Cancer EKVX; single dose 10^−5 M. The class given is cell-based.
The next assay concerns DU-145. As to the kind of experiment: NCI single-dose growth inhibition screen. The class given is cell-based. As to conditions: Homo sapiens; Prostate Cancer DU-145; single dose 10^−5 M.
The next assay deals with MDA-MB-435. As to the kind of experiment: NCI single-dose growth inhibition screen. Format: cell-based. As to conditions: Homo sapiens; Melanoma MDA-MB-435; single dose 10^−5 M.
The test system of another assay is SNB-19. As to the kind of experiment: NCI single-dose growth inhibition screen. The class given is cell-based. As to conditions: Homo sapiens; CNS Cancer SNB-19; single dose 10^−5 M.
Another assay concerns UO-31. As to the kind of experiment: NCI single-dose growth inhibition screen. As to conditions: single dose 10^−5 M; for inhibition at 10 µM: Homo sapiens, UO-31, Renal Cancer UO-31; for Growth Inhibition (%): Renal Cancer UO-31. Format: cell-based, human.
A further assay concerns M14. As to the kind of experiment: NCI single-dose growth inhibition screen. The class given is cell-based. As to conditions: Homo sapiens; Melanoma M14; single dose 10^−5 M. The protocol:
Following the guidelines established by the drug evaluation department of the National Cancer Institute (NCI), USA, all target compounds 3a–l were examined against 60 cancer cell lines at a single concentration of 10 µM.
The anti-cancer potential of the tested compounds was evaluated at the National cancer institute (NCI), USA, against 9 panels of 60 various cell lines derived from nine human tumours available usually at NCI library. The procedures for the screening were described in details in NCI website (dttp://www.dtp.nci.nih.gov.) and were done according to NCI protocols[60] . The anticancer screening was carried out at single dose of 10^−5 M, NCI, Bethesda, USA. The results obtained as growth inhibition (%).

A further assay relates to 786-0. As to the kind of experiment: NCI single-dose growth inhibition screen. As to conditions: Homo sapiens; Renal Cancer 786-0; single dose 10^−5 M. The class given is cell-based.
Another assay deals with CAKI-1. As to the kind of experiment: NCI single-dose growth inhibition screen. The class given is cell-based. As to conditions: Homo sapiens; Renal Cancer CAKI-1; single dose 10^−5 M.
In the next assay the test system is SR. As to the kind of experiment: NCI single-dose growth inhibition screen. The class given is cell-based. As to conditions: Homo sapiens; Leukemia SR; single dose 10^−5 M.
The subject of the next assay is SF-539. Briefly: NCI single-dose growth inhibition screen. The class given is cell-based. As to conditions: Homo sapiens; CNS Cancer SF-539; single dose 10^−5 M.
For a further assay, the system named is SF-268. As to the kind of experiment: NCI single-dose growth inhibition screen. Format: cell-based. As to conditions: Homo sapiens; CNS Cancer SF-268; single dose 10^−5 M.
The test system of assay [1] is K. pneumoniae ATCC 10,031. Briefly: Antibacterial screening, agar cup diffusion method. The class given is cell-based. As to conditions: read-out: Minimum inhibitory concentrations (MIC, µM) K. pneumoniae ATCC 10,031.
Experimental: (§1) Anti-bacterial activity of the recently synthesized compounds 3a-k was evaluated at AUMC (Assiut University Mycological Centre), Assiut, Egypt. Assays were done against Gram-negative strains of K. pneumoniae (ATCC 100310, E. coli (ATCC 25922), Pseudomonas aeruginosa (ATCC 27853) and the Gram-positive S. aureus (ATCC 6538) strain utilizing standard agar cup diffusion method. The isolates from the four bacterial species examined were kept in TSB (Trypticase Soya Broth, Becton and Dickinson) with 10% glycerol at -70 °C and then subcultured on TSA (Trypticase Soya Agar, Becton and Dickinson) and TSB for 24 h at 37 °C former to inoculation. Bacterial isolates were then plated on sterile petri plates with 1 × 10^8 CFU/mL (0.5 McFarland turbidity) and 20 mL of Mueller Hinton Agar media (Oxoid) was then loaded. To ensure that the microorganisms were evenly dispersed, the plates were gently rotated before being left to harden on a level surface. Four equally spaced spherical-shaped wells (10 mm diameter) were painstakingly drilled using a sterilized cork bore after media solidification. All tested compounds under test underwent two-fold serial dilutions in a sequential manner. Three replications of 100 µL of each concentration were added to a well using a micropipette. Plates were then incubated for 24-hour at 37 °C. The average of the inhibition zones was then calculated. To determine the MICs, the natural logarithm of each diluted test substance’s concentration was plotted against the average area of the related inhibition zone. Following that, a regression line was created and the intercept on the ‘ln concentration” axis was determined, and the antilogarithm was calculated to indicate the MIC value[34],[63].
For the next assay, the system named is OVCAR-4. Briefly: NCI single-dose growth inhibition screen. As to conditions: Homo sapiens; Ovarian Cancer OVCAR-4; single dose 10^−5 M. Format: cell-based.
A further assay deals with MDA-MB231. Briefly: NCI single-dose growth inhibition screen. Format: cell-based. As to conditions: Homo sapiens, MDA-MB-231; Breast Cancer MDA-MB231; single dose 10^−5 M.
In the next assay the test system is S. aureus ATCC 6538. As to the kind of experiment: Antibacterial screening, agar cup diffusion method. Format: cell-based. As to conditions: Staphylococcus aureus, ATCC6538; Gram + ve strain; read-out: Minimum inhibitory concentrations (MIC, µM) S. aureus ATCC 6538.
The next assay concerns A498. Briefly: NCI single-dose growth inhibition screen. The class given is cell-based, human. As to conditions: single dose 10^−5 M; for inhibition at 10 µM: Homo sapiens, A498, Renal Cancer A498.
The subject of a further assay is K-562. Briefly: NCI single-dose growth inhibition screen. The class given is cell-based. As to conditions: Homo sapiens, K562; Leukemia K-562; single dose 10^−5 M.
A further assay concerns A549/ATCC. Briefly: NCI single-dose growth inhibition screen. The class given is cell-based. As to conditions: Homo sapiens; Non-Small Cell Lung Cancer A549/ATCC; single dose 10^−5 M.
In a further assay the test system is SK-MEL-28. Briefly: NCI single-dose growth inhibition screen. As to conditions: Homo sapiens; Melanoma SK-MEL-28; single dose 10^−5 M. The class given is cell-based.
Another assay deals with CCRF-CEM. Briefly: NCI single-dose growth inhibition screen. Format: cell-based. As to conditions: Homo sapiens; Leukemia CCRF-CEM; single dose 10^−5 M.
Setting [2] is: Klebsiella pneumoniae, ATCC10, Gram –ve strain.

Experimental for S. aureus ATCC 6538: as §1

In the case of `O=C(O)c1cn(C2CC2)c2cc(N3CCN(C(=O)CCCN4C(=O)CSC4=O)CC3)c(F)cc2c1=O` [3 L, 1-Cyclopropyl-7-(4-(4-(2,4-dioxothiazolidin-3-yl)butanoyl)piperazin-1-yl)-6-fluoro-4-oxo-1,4-dihydroquinoline-3-carboxylic acid], the inhibition at 10 µM in the assay with EKVX was 23.8%; in the assay on DU-145 it was 8.3%; with MDA-MB-435, below 0%; with SNB-19, 0%; in the assay with UO-31, 42%; in the assay on M14 it was below 0%. Also, the inhibition at 10 µM with 786-0 was 4.8%; with CAKI-1, 22.7%; in the assay with SR it was below 0%; in the assay on SF-539, 3.3%; in the assay with SF-268, 15.1%; with OVCAR-4, 19.2%. Moreover, the inhibition at 10 µM with MDA-MB231 is 10.1%; with A498 it was 45.1%; with K-562, below 0%; with A549/ATCC it was 6.7%; with SK-MEL-28, 49.5%. For the same compound, the “Growth Inhibition (%)” value was found to be 41.0% in the assay on UO-31 and 45.1% in the assay with A498 (Renal Cancer A498). In addition, the MIC (in assay [1] (setting [2]); in the assay on S. aureus ATCC 6538) was above 20 µM each time.
For the compound `COc1cc(/C=C2\SC(=O)N(CCCC(=O)N3CCN(c4cc5c(cc4F)c(=O)c(C(=O)O)cn5C4CC4)CC3)C2=O)cc(OC)c1OC` [3 g], the inhibition at 10 µM was below 0% in the assay with EKVX; below 0% with DU-145; below 0% in the assay with MDA-MB-435; below 0% in the assay with SNB-19; 1.5% with UO-31; 0.5% with M14. The inhibition at 10 µM in the assay with 786-0 was below 0%; with CAKI-1 it was 2.2%; with SR, 5.4%; in the assay with SF-539, 0.5%; in the assay with SF-268 it was 4.4%; in the assay on CCRF-CEM it was below 0%. The inhibition at 10 µM in the assay on OVCAR-4 was below 0%; in the assay on MDA-MB231, below 0%; with A498, 2.3%; with K-562, below 0%; with A549/ATCC, 3.5%; with SK-MEL-28, below 0%. Besides, the MIC in [1] (Gram –ve strain) is 0.25 µM (≈ 0.174 µg/mL); in [1] (setting [2]), 0.13 to 0.8 µM (≈ 0.0903 to 0.556 µg/mL); in the assay on S. aureus ATCC 6538 it was above 20 µM.
Take `O=C(O)c1cn(C2CC2)c2cc(N3CCN(C(=O)CCCN4C(=O)S/C(=C\c5ccc(Cl)cc5)C4=O)CC3)c(F)cc2c1=O` [3 h]: the inhibition at 10 µM in the assay on EKVX was 2.1%; with DU-145, below 0%; with MDA-MB-435, below 0%; with SNB-19, 0%; in the assay on UO-31, 28%; in the assay with M14, 0.7%. Moreover, the inhibition at 10 µM with 786-0 is 11.3%; with CAKI-1 it was 4.4%; in the assay on SR, 10.7%; in the assay with SF-539 it was 1.2%; with SF-268, 2.3%; with CCRF-CEM, below 0%. For the same compound, the inhibition at 10 µM was 5.1% in the assay on OVCAR-4; 13.7% with MDA-MB231; 7.7% with A498; 0.7% in the assay on K-562; 3.4% in the assay on A549/ATCC; below 0% in the assay on SK-MEL-28. The MIC in the assay on S. aureus ATCC 6538 was above 20 µM.
As to `O=C(O)c1cn(C2CC2)c2cc(N3CCN(C(=O)CCCN4C(=O)SC(=Cc5ccccc5)C4=O)CC3)c(F)cc2c1=O` [3a, 7-[4-[4-[5-benzylidene-2,4-dioxo-thiazolidin-3-yl]butanoyl]piperazin-1-yl]-1-cyclopropyl-6-fluoro-4-oxo-quinoline-3-carboxylic acid], the inhibition at 10 µM is below 0% in the assay on EKVX; below 0% with DU-145; 7.8% with MDA-MB-435; 9.8% in the assay on SNB-19; 53.2% with UO-31; 8.2% in the assay on M14. Besides, the inhibition at 10 µM in the assay on 786-0 came out at 21.2%; in the assay on CAKI-1, 10.9%; in the assay on SR, 29.9%; with SF-539, 8.9%; in the assay with SF-268, 12.4%; with CCRF-CEM, 9.8%. The inhibition at 10 µM was 2.5% with OVCAR-4; 25.2% with MDA-MB231; 41.4% in the assay with A498; 22.5% in the assay on K-562; 14.2% with A549/ATCC; 9% with SK-MEL-28. In addition, the “Growth Inhibition (%)” value in the assay on UO-31 is listed as 36.0%. For the same compound, the MIC in assay [1] (Gram –ve strain) is 0.22 µM (≈ 0.133 µg/mL); in [1] (setting [2]), 0.13 to 0.8 µM (≈ 0.0786 to 0.484 µg/mL); in the assay with S. aureus ATCC 6538 it was above 20 µM.
Turning to `Cc1ccc(/C=C2\SC(=O)N(CCCC(=O)N3CCN(c4cc5c(cc4F)c(=O)c(C(=O)O)cn5C4CC4)CC3)C2=O)cc1` [3c], the inhibition at 10 µM with EKVX was 2.4%; in the assay with DU-145 it was below 0%; with MDA-MB-435 it was below 0%; in the assay with SNB-19 it was below 0%; in the assay with UO-31 it was 16.5%; in the assay on M14 it was below 0%. For the same compound, the inhibition at 10 µM in the assay with 786-0 was 0.9%; in the assay with CAKI-1, 1.5%; in the assay on SR it was below 0%; with SF-539, 0.9%; in the assay on SF-268, 3.7%; in the assay on CCRF-CEM, 2.9%. Moreover, the inhibition at 10 µM in the assay with OVCAR-4 is below 0%; in the assay with MDA-MB231, below 0%; in the assay on A498, 5.3%; with K-562 it was below 0%; with A549/ATCC, below 0%; in the assay on SK-MEL-28, below 0%. In the assay with S. aureus ATCC 6538, the MIC is above 20 µM.
`O=C(O)c1cn(C2CC2)c2cc(N3CCN(C(=O)CCCN4C(=O)S/C(=C\c5ccc([N+](=O)[O-])cc5)C4=O)CC3)c(F)cc2c1=O` [3k]: the inhibition at 10 µM in the assay on EKVX was 24.4%; with DU-145 it was 7%; in the assay with MDA-MB-435, below 0%; in the assay on SNB-19, below 0%; in the assay with UO-31, 42%; with M14 it was below 0%. The inhibition at 10 µM in the assay with 786-0 was determined as 14.1%; with CAKI-1, 19.5%; in the assay with SR it was 9.7%; in the assay with SF-539, 6%; in the assay on SF-268, 13.3%; in the assay with OVCAR-4, 13.7%. The inhibition at 10 µM is 11.2% in the assay on MDA-MB231, below 0% in the assay with K-562, 5.5% with A549/ATCC and below 0% in the assay on SK-MEL-28. The “Growth Inhibition (%)” value with UO-31 is 41.1%. The MIC in the assay on S. aureus ATCC 6538 was above 20 µM.
